The values that follow come from ChEMBL document CHEMBL1138794, “Influence of the linker in bispyridium compounds on the inhibition of human choline kinase” (J Med Chem, 2004).

One may read the IC50 as the midpoint of a concentration-inhibition curve. A high value points to a need for much substance.

Test [1] concerns the target Choline kinase alpha (Homo sapiens, UniProt P35790). As to the kind of experiment: Inhibitory activity against human choline kinase enzyme.
Test [2] concerns HT-29. As to the kind of experiment: Antiproliferative activity was determined using HT-29 human colon cancer cell line. The class given is functional, cell-based.

Sequence of Choline kinase alpha (P35790 whole entry): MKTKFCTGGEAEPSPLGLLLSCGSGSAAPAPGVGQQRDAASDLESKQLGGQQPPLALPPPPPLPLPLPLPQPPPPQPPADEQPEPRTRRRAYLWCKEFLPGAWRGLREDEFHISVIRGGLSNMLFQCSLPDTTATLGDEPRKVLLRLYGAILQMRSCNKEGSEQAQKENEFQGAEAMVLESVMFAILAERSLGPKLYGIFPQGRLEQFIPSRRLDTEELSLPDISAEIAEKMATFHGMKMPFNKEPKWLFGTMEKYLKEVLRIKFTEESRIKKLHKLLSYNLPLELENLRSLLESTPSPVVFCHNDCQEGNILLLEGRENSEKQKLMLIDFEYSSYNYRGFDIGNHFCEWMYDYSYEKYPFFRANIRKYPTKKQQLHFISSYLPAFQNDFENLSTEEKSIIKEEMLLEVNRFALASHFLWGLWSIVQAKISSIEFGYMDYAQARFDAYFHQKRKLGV

For `c1cc(C[n+]2ccc(N3CCCC3)cc2)cc(C[n+]2ccc(N3CCCC3)cc2)c1`, the IC50 in test [1] is 84.2 µM; in test [2], 50 µM.

Regarding `c1cc(-c2ccc(C[n+]3ccc(N4CCCC4)cc3)cc2)ccc1C[n+]1ccc(N2CCCC2)cc1`, the results for the IC50 in test [1] and in test [2] were 11.1 µM and 6.1 µM, respectively. The corresponding values for `c1cc(-c2ccc(C[n+]3ccc(N4CCCCC4)cc3)cc2)ccc1C[n+]1ccc(N2CCCCC2)cc1` are 8.8 µM and 4.2 µM. For `CN(c1ccc(Cl)cc1)c1cc[n+](C[C@H]2C[C@@H]2C[n+]2ccc(N(C)c3ccc(Cl)cc3)cc2)cc1`, in that order: 48.2 µM and 24.3 µM. For `CN(c1cc[n+](Cc2cccc(-c3cccc(C[n+]4ccc(N(C)c5cc(Cl)cc(Cl)c5)cc4)c3)c2)cc1)c1cc(Cl)cc(Cl)c1`, in that order: 2.6 µM and 1.8 µM.

As for `CN(c1ccccc1)c1cc[n+](Cc2ccc(C[n+]3ccc(N(C)c4ccccc4)cc3)cc2)cc1`, the IC50 was determined as 15 µM in test [1] and 6.81 µM in test [2]. For `CN(c1ccc(Cl)cc1)c1cc[n+](Cc2ccc(-c3ccc(C[n+]4ccc(N(C)c5ccc(Cl)cc5)cc4)cc3)cc2)cc1`, in that order: 1.8 µM and 0.49 µM. For the compound `c1cc(C[n+]2ccc(N3CCCCC3)cc2)ccc1C[n+]1ccc(N2CCCCC2)cc1`, the IC50 in test [1] is 37.7 µM; in test [2], > 100 µM. Turning to `CN(c1ccccc1)c1cc[n+](Cc2cccc(C[n+]3ccc(N(C)c4ccccc4)cc3)c2)cc1`, the IC50 in test [1] is 37.5 µM; in test [2], 5.1 µM. For the compound `c1cc(C[n+]2ccc(N3CCCCC3)cc2)cc(-c2cccc(C[n+]3ccc(N4CCCCC4)cc3)c2)c1`, the IC50 in test [2] was 1.6 µM. In the case of `c1cc(C[n+]2ccc(N3CCCCC3)cc2)cc(C[n+]2ccc(N3CCCCC3)cc2)c1`, the values for the IC50 in test [1] and in test [2] were 52.8 µM and 43 µM, respectively. The corresponding values for `CN(c1ccc(Cl)cc1)c1cc[n+](Cc2ccc(C[n+]3ccc(N(C)c4ccc(Cl)cc4)cc3)cc2)cc1` are 2.9 µM and 3.5 µM. The corresponding values for `CN(c1cc[n+](Cc2ccc(C[n+]3ccc(N(C)c4cc(Cl)cc(Cl)c4)cc3)cc2)cc1)c1cc(Cl)cc(Cl)c1` are 9.7 µM and 2.9 µM. The corresponding values for `c1c[n+](C[C@H]2C[C@@H]2C[n+]2ccc(N3CCCCC3)cc2)ccc1N1CCCCC1` are 98 µM and 99 µM.

In the case of `c1cc(C[n+]2ccc(N3CCCC3)cc2)ccc1C[n+]1ccc(N2CCCC2)cc1`, the IC50 in test [1] was 24 µM; in test [2], > 100 µM.

For the compound `CN(c1cc[n+](C[C@H]2C[C@@H]2C[n+]2ccc(N(C)c3cc(Cl)cc(Cl)c3)cc2)cc1)c1cc(Cl)cc(Cl)c1`, the IC50 in test [1] was > 100 µM; in test [2], 7.5 µM.

With `CN(c1ccccc1)c1cc[n+](Cc2cccc(-c3cccc(C[n+]4ccc(N(C)c5ccccc5)cc4)c3)c2)cc1`, the IC50 turned out to be 0.4 µM in test [1] and 2.2 µM in test [2]. As for `CN(c1ccccc1)c1cc[n+](C[C@H]2C[C@@H]2C[n+]2ccc(N(C)c3ccccc3)cc2)cc1`, the IC50 in test [1] and in test [2] was > 100 µM throughout. For `CN(c1cc[n+](Cc2cccc(C[n+]3ccc(N(C)c4cc(Cl)cc(Cl)c4)cc3)c2)cc1)c1cc(Cl)cc(Cl)c1`, the IC50 stood at 8.4 µM in test [1] and 4 µM in test [2]. The corresponding values for `c1c[n+](C[C@H]2C[C@@H]2C[n+]2ccc(N3CCCC3)cc2)ccc1N1CCCC1` are > 100 µM and > 100 µM. On to `CN(c1ccccc1)c1cc[n+](Cc2ccc(-c3ccc(C[n+]4ccc(N(C)c5ccccc5)cc4)cc3)cc2)cc1`, for which the IC50 was found to be 4.3 µM in test [1] and 2 µM in test [2]. The corresponding values for `CN(c1ccc(Cl)cc1)c1cc[n+](Cc2cccc(C[n+]3ccc(N(C)c4ccc(Cl)cc4)cc3)c2)cc1` are 7.2 µM and 3.3 µM.
